These results are taken from PMC6131501, “Urate transporter inhibitor lesinurad is a selective peroxisome proliferator-activated receptor gamma modulator (sPPARγM) in vitro” (Scientific Reports, 2018).

In one series the test system is 3T3-L1 cells. Kind of series: Cytotoxicity in adipocyte differentiation experiment. The class given is cell-based, murine. Particulars: up to 50 μM (data not shown). The method, then:
For this, 3T3-L1 cells were treated with insulin, dexamethasone and isobutylmethylxanthine (IBMX) to induce their differentiation into mature adipocytes.

In the next series the target is T1, full-length PPARγ (Homo sapiens, UniProt P37231).
T1 construct: host or cells: HEK293T
Kind of series: Full-length PPARγ reporter gene assay. The class given is cell-based. On the procedure:
HEK293T cells were grown in DMEM high glucose, supplemented with 10% FCS, sodium pyruvate (1 mM), penicillin (100 U/mL) and streptomycin (100 μg/mL) at 37 °C and 5% CO2. The day before transfection, HEK293T cells were seeded in 96-well plates (3·10^4 cells/well). Before transfection, medium was changed to Opti-MEM without supplements. […] 5 h after transfection, medium was changed to Opti-MEM supplemented with penicillin (100 U/mL), streptomycin (100 μg/mL), now additionally containing 0.1% DMSO and the respective test compound or 0.1% DMSO alone as untreated control. Each concentration was tested in duplicates and each experiment was repeated independently at least three times. Following overnight (12-14 h) incubation with the test compounds, cells were assayed for luciferase activity using Dual-Glo™ Luciferase Assay System (Promega) according to the manufacturer’s protocol. Luminescence was measured with an Infinite M200 luminometer (Tecan Deutschland GmbH). […] Fold activation was obtained by dividing the mean RLU of a test compound at a respective concentration by the mean RLU of untreated control.
For orientation: A reporter such as luciferase makes a cellular process visible.

Series [1] has as its target T2, recombinant PPARγ ligand binding domain (Homo sapiens, UniProt P37231).
T2 sequence (P37231 238-503 limits assumed): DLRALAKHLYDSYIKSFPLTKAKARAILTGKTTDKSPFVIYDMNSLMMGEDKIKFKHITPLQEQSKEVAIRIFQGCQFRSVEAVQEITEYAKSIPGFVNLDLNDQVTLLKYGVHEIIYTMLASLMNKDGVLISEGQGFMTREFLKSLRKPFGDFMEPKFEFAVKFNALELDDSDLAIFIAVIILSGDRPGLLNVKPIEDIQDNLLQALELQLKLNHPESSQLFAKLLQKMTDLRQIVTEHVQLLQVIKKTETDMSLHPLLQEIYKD
Kind of series: Isothermal titration calorimetry (ITC). On the procedure: To confirm direct modulation of PPARγ by lesinurad, we analyzed their interaction by isothermal titration calorimetry (ITC). Due to limited solubility of lesinurad, recombinant PPARγ ligand binding domain (LBD) protein was (reversely) titrated to the drug.
Isothermal titration calorimetry (ITC) was conducted on an Affinity ITC (TA Instruments Affinity ITC). Recombinant PPARγ ligand binding domain protein (138 μM) and lesinurad (40 μM) were each dissolved in a HEPES buffer (25 mM; adjusted to pH 7.5 with KOH; further containing 150 mM KF, 10% glycerol (w/w), 1% DMSO (v/v) and 5 mM DTT). The ITC instrument was adjusted to a temperature of 25 °C and the stirring rate was set at 75 rpm. 190 μL lesinurad solution were filled into the reaction cell and PPARγ ligand binding domain solution was titrated in 41 injections. […] An interval of 200 s was maintained between individual injections. The heats of dilution resulting from titrating PPARγ ligand binding domain protein solution into the buffer solution were recorded in an additional ITC run and subtracted from the raw ITC data obtained for lesinurad.
ITC raw data was analyzed using NanoAnalyze software package (version 3.7.5). An independent binding model was used to fit the reaction enthalpy (ΔH), binding affinity constant (Kd), and stoichiometry (n). Free energy change (ΔG) was calculated from the equation ΔG = −RT ln K and the entropy (ΔS) was calculated from ΔG = ΔH−TΔS.
Background: In ITC the heat of successive injections is recorded.

For series [2], the system named is PPARγ-regulated genes in 3T3-L1 adipocytes. As to the kind of experiment: PPARγ target gene quantification in 3T3-L1 adipocytes (qPCR). In kind it is cell-based, murine. The note with it: 3T3-L1 adipocytes, rosiglitazone 2 μM, 1 30 μM, mean ± SEM, n = 3. On the procedure: 3T3-L1 cells were cultured and differentiated as described above. Cells were then lysed using TRIzol reagent (Ambion, Life Technologies, Carlsbad, CA, USA), and mRNA was isolated following the manufacturer’s protocol. DNA contaminations were digested using DNase (DNase I, RNase-free kit; Thermo Scientific, Waltham, MA, USA) and mRNA concentrations were measured with a NanoDrop2000 spectrophotometer (Thermo Scientific, Waltham, MA, USA). Subsequently, reverse transcription was performed using the high capacity RNA-to-cDNA kit (Applied Biosystems, Foster City, CA, USA). Quantitative real-time PCR was performed using specific primers for CD36, […] and CPT1A with a StepOnePlus real-time PCR system (Applied Biosystems, Foster City, CA, USA). Non-POU domain containing octamer binding protein (NonO) was used as reference gene for 3T3-L1. All samples were measured in duplicate and were analyzed using the ΔΔCt method. The following PCR primers were used: Adiponectin: 5′-TGACGACACCAAAAGGGCTC-3′ (fwd) and 5′-CACAAGTTCCCTTGGGTGGA-3′ (rev); CD36: 5′-TGCTGGAGCTGTTATTGGTG-3′ (fwd) and 5′-CATGAGAATGCCTCCAAACA-3′ (rev); FABP4: 5′-AGAAGTGGGAGTGGGCTTTG-3′ (fwd) and 5′-ACTCTCTGACCGGATGGTGA-3′ (rev); GLUT4: 5′-TGAAGAACGGATAGGGAGCAG-3′ (fwd) and 5′-GAAGTGCAAAGGGTGAGTGAG-3′ (rev); NonO: 5′-TGCTCCTGTGCCACCTGGTACTC-3′ (fwd) and 5′-CCGGAGCTGGACGGTTGAATGC-3′ (rev).
Results (expressed as mean ± SEM % relative mRNA expression; n = 3): Adiponectin: untreated (0.1% DMSO): 124 ± 45%; […];
Background: In qPCR the cycle at which signal appears reflects the starting amount.

“And” between values parts separate entries of the source, which are not always exact repeats. Equal entries are not always repeated.

T1 sequence (P37231 whole entry): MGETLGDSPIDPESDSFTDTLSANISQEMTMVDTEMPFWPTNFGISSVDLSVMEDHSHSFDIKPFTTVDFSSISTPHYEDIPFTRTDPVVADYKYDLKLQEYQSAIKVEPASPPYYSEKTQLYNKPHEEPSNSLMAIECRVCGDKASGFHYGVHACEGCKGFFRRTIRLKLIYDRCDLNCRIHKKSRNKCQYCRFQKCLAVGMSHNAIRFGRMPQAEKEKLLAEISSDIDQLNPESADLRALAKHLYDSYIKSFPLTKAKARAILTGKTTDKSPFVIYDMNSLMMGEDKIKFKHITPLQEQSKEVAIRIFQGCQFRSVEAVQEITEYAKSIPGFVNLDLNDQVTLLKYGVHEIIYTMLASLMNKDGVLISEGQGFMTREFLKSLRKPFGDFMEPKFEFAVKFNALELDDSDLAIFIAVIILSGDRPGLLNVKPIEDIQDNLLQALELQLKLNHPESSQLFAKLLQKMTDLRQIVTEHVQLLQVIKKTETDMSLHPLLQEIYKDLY

A word on the EC50: it is the concentration giving half of the maximal effect. For orientation: Kd means the constant that tells how readily two partners part at equilibrium. As to `O=C(O)CSc1nnc(Br)n1-c1ccc(C2CC2)c2ccccc12` [lesinurad], the cytotoxicity result in the series with 3T3-L1 cells is listed as “no cytotoxicity”. Moreover, the “transactivation efficacy on full-length PPARγ” value on full-length PPARγ (compared to reference agonists) is “higher transactivation efficacy than pioglitazone and rosiglitazone”. Moreover, a half-maximal effect at full-length PPARγ (full-length human PPARγ, HEK293T, mean ± SEM) (EC50) was put at 21 ± 2 µM. Moreover, the Kd in series [1] (25 °C, PPARγ LBD titrated to drug, independent binding model) came to 1.3 µM. The ΔS in series [1] (25 °C, calculated from ΔG = ΔH−TΔS) is 27 J/mol·K and 26,99 J/mol·K. In addition, in series [1] (value printed in the picture of Fig. 4), the “n (stoichiometry)” value is reported as 0,987. Moreover, the “CD36 relative mRNA expression” value in series [2] (untreated 122 ± 43%) is 205 ± 76%. Further, the “Adiponectin relative mRNA expression” value in series [2] (untreated 124 ± 45%) is on record as 175 ± 63%. Moreover, the “GLUT4 relative mRNA expression” value in series [2] (untreated 145 ± 61%) was 128 ± 43%. Also, the “FABP4 relative mRNA expression” value in series [2] (untreated 161 ± 72%) came to 151 ± 58%.
